Assay results from a melting point compilation (Tetko et al.; mined from patent text by program, amines drawn as free bases though some values may be those of a salt).

First: C=CCOc1cc2c(cc1Br)CC[C@H]2CCNC(=O)CC
Second: CCOC(=O)c1cnc2c(c1Cl)CN(C(=O)OCC)CC2
The melting point of the first is lower: 86 to 87 °C for the first, 231 to 233 °C for the second.

First: CC(Br)c1cc2ccccc2s1 (stereo not given)
Second: Cc1cn(CC(Br)C(=O)N(C)C)nc1-c1ccccc1 (stereo not given)
The melting point of the first is lower: 53 °C for the first, 104 to 107 °C for the second.

Compared with `O=[N+]([O-])c1c(Br)c(Br)cc2c1OC(F)(F)C(F)(F)O2`, `O=[N+]([O-])c1cc(-c2cn3ncsc3n2)cc(O)c1O` is higher in melting point: 91 to 92 °C for the first, 278 to 280 °C for the second.

First: c1ccc(OCCCCN2CCNCC2)cc1
Second: COc1ccc(S(=O)(=O)C2(C(=O)NO)CCN(CCCOc3ccccc3)CC2)cc1
The melting point of the first is lower: 35 to 36 °C for the first, 101 °C for the second.

First: CC(C)(C)CC(=O)c1c(-c2ccc3cc(OCC(=O)O)ccc3c2)oc2ccccc12
Second: CC(C)(C)OC(=O)c1ccc(NC2CCc3cc4nc(COCc5ccccc5)[nH]c(=O)c4cc32)cc1 (racemic)
The melting point of the first is higher: 207 to 209 °C for the first, 194 to 195 °C for the second.

Compared with `COc1ccc(CC2Cc3cc(C)cnc3C(OC(C)=O)C2)cc1` (single isomer, unassigned; (+)), `CC(=O)OC1CSC(Oc2ccnc(-c3ccncc3)c2)C(OC(C)=O)C1OC(C)=O` (stereo not given) is higher in melting point: 94 to 98 °C for the first, 185 °C for the second.

First: CCOC(=O)C1CC2=C(CO1)C(=O)C(Cl)=CC2=O (stereo not given)
Second: CCOC(=O)C1CS(=O)(=O)c2c(C(=O)c3ccccc3)cc(Cl)cc21 (stereo not given)
The melting point of the first is lower: 83.5 °C for the first, 138 to 139 °C for the second.

First: CC(=O)n1c(-c2ccc(C#N)cc2)cc2ccccc21
Second: O=C(O)c1ccc(-c2cccc(O)c2)cc1
The melting point of the first is lower: 158 to 160 °C for the first, 180 °C for the second.

Compared with `CC(CNC(=O)c1ccc(-c2ccc(Cl)cc2)cc1F)c1ccc(CN2CCCC2)cc1` (stereo not given), `O=S(=O)(c1ccccc1)c1cc[nH]c1-c1ccc(Cl)cc1` is higher in melting point: 119 to 121 °C for the first, 158 to 159 °C for the second.

First: CC1=C(C#N)C(c2cccc3nc(-c4ccccc4)sc23)C(C(=O)OC(C)C)=C(C)N1 (stereo not given)
Second: CCc1nc2c(C)cc(C)nc2n1Cc1ccc(C(=C(Cl)C(=O)O)c2ccccc2)cc1
The melting point of the first is higher: 218 °C for the first, 120 to 125 °C for the second.

First: O=CN(O)C(CCO)CS(=O)(=O)c1ccccc1Oc1ccc(OC(F)(F)F)cc1 (stereo not given)
Second: CNC(=O)c1cc2c(Oc3ccc(OC(F)(F)F)cc3)cncc2s1
The melting point of the first is lower: 120 to 123 °C for the first, 132 to 133 °C for the second.

Compared with `CC(C)(C)OC(=O)N[C@@H]1CCc2ccc(OS(=O)(=O)C(F)(F)F)cc2C1`, `COc1cc2cc(OS(=O)(=O)C(F)(F)F)cnc2cc1OC` is higher in melting point: 52 to 55 °C for the first, 82.5 to 84 °C for the second.

First: CC(=Nc1cc(C(F)(F)F)cc2nc(C)n(C(C)C)c12)c1ccccc1
Second: CCc1cc2nc(N)c(-c3ccccc3)cc2c(CC)n1
The melting point of the first is higher: 164 to 166 °C for the first, 110 to 112 °C for the second.

Compared with `CCCC[C@H](NC(=O)[C@H](CC(C)C)NC(=O)OCc1ccccc1)C(=O)CCCc1cccs1`, `CC(C)C[C@H](NC(=O)OCc1ccccc1)C(=O)N[C@@H](Cc1ccccc1)C(=O)CS` is higher in melting point: 65 to 67 °C for the first, 171 °C for the second.

First: CCOC(=O)CC(=O)C=Cc1ccccc1
Second: O=C(NO)C(=O)Nc1ccccc1
The melting point of the first is lower: 49 °C for the first, 165 to 167 °C for the second.

First: CS(=O)(=O)c1ccc(-c2cnn(CC(F)(F)F)c(=O)c2Sc2ccc(F)c(Cl)c2)cc1
Second: CC(C)(C)CCOc1c(-c2ccc(S(C)(=O)=O)cc2)cnn(CC(F)(F)F)c1=O
The melting point of the first is higher: 142 to 145 °C for the first, 83 to 85 °C for the second.

`ClC(Cl)=CCOc1cc(Cl)c(OCc2cccc(Cl)c2)c(Cl)c1` and `Cc1nccc(OCc2ccccc2)c1OCc1ccccc1` cannot be ordered by melting point: 87 °C for the first, 85 to 87 °C for the second.

Compared with `O=c1[nH]c(=O)n(Cc2cccc(OCc3noc(-c4ccc(F)cc4)n3)c2)o1`, `CCc1noc(-c2cn(-c3ccccc3OCCc3ccccc3)cn2)n1` is lower in melting point: 147 to 148 °C for the first, 61 °C for the second.

First: Clc1ccc(CSC(Cn2ccnc2)C23CC4CC(CC(C4)C2)C3)cc1 (stereo not given)
Second: CN1C(=O)C(NC(=O)CC23CC4CC(CC(C)(C4)C2)C3)N=C(c2ccccc2)c2ccccc21 (racemic)
The melting point of the first is lower: 157 to 160 °C for the first, 195 to 196 °C for the second.

First: CCCN1NCc2c(C3C(=O)Nc4ccc(C(F)(F)F)cc43)ncnc21 (stereo not given)
Second: CC(C)CCN1C(=O)C(N)C(=O)Nc2ccccc21 (stereo not given)
The melting point of the first is higher: 293 to 295 °C for the first, 148 to 150 °C for the second.

Compared with `CCOC(=O)c1cc(=O)cc(-c2ccc([N+](=O)[O-])cc2)o1`, `CCOC(=O)[C@@H](O)[C@@H]1OC(=O)c2cc(OC)c(OS(=O)(=O)c3ccc(C)cc3)cc21` is lower in melting point: 160 to 162 °C for the first, 107 to 108 °C for the second.

Compared with `Nc1ccc2ccc(-c3ccc(F)cc3)nc2n1`, `CS(=O)(=O)c1ccc(-c2cnn(CC(F)=C(F)F)c(=O)c2-c2ccc(F)cc2)cc1` is lower in melting point: 175 °C for the first, 154 to 156 °C for the second.

First: CCNC(=O)OC1CC(C)(C)N(OC(=O)NCC)C(C)(C)C1
Second: CCNC(=O)Oc1cccc(NC(=O)C=C(C)OC)c1
The melting point of the first is lower: 149 to 151 °C for the first, 183 °C for the second.

Compared with `CCOc1nc(C)c(N2CCCn3c2nc2c(Cl)ccc(C(OC(F)F)C(F)(F)F)c23)c(C)n1` (stereo not given), `CCC(CC)c1ccc(Cl)c2nc3n(c12)CCCCN3c1ncc([N+](=O)[O-])cc1C` is lower in melting point: 218 to 220 °C for the first, 204 to 205 °C for the second.

First: CN1C(=O)CN(C(=O)CCl)C(c2ccccc2)c2cc(Cl)ccc21 (stereo not given)
Second: CC(C)N(C(=O)CN1C(=O)Cn2cnnc2-c2ccccc21)c1ccccc1
The melting point of the first is higher: 197 to 200 °C for the first, 141 to 143 °C for the second.

First: CC(C)c1ccc(Cn2[nH]c(N)cc2=O)cc1
Second: CC(C)c1cc(C(C)C)c(CC(=O)O)c(-c2ccc(F)cc2)c1CO
The melting point of the first is lower: 105 °C for the first, 124 to 126 °C for the second.

First: Cc1c(C)c(N2CCN(c3nncs3)CC2)c(C)c2c1OC(C)C2 (stereo not given)
Second: C=C(C)c1cc(NC(=O)N2CCN(c3cc(OC)cc(OC)c3)CC2)c(OC)nc1C
The melting point of the first is higher: 203 to 205 °C for the first, 83 to 85 °C for the second.

Compared with `COc1cc2c(c(OC)c1OC)C(CN1CCC(c3noc4cc(F)ccc34)CC1)=C2`, `CC(=O)OC1CCN(Cc2nc(-c3cc(C(C)(C)C)c(O)c(C(C)(C)C)c3)cs2)CC1` is higher in melting point: 141 to 143 °C for the first, 160 to 161 °C for the second.

First: Cc1cc(CC=CCc2cc(C)c(O)c(C(C)(C)C)c2)cc(C(C)(C)C)c1O
Second: CCc1cccc(C)c1CNc1cc(C(=O)N(C)C)nc2c(C)c(C)[nH]c12
The melting point of the first is lower: 99 to 106 °C for the first, 260 to 262 °C for the second.

First: CNC(=S)n1nc(-c2ccc(Cl)nc2)nc1N
Second: NC(=S)Nc1ccccc1-c1ccc(Cl)cc1
The melting point of the first is higher: 208 to 211 °C for the first, 175 to 177 °C for the second.

Compared with `O=C(CBr)c1ccc(Cl)c(Cl)c1Cl`, `Cc1c(Cl)ccc(S(=O)(=O)Cl)c1Cl` is higher in melting point: 44 to 46 °C for the first, 75 °C for the second.

Compared with `NC(=O)N1C(=O)C(=C(OCOC(=O)COCC(=O)OCc2ccccc2)c2cccs2)c2cc(F)c(Cl)cc21`, `NC(=O)c1c(Cl)c(-c2ccccc2)n2c1CN(S(=O)(=O)c1ccccc1F)CC2` is higher in melting point: 122 °C for the first, 239 to 240 °C for the second.

First: CCOC(=O)c1[nH]c(CC)c(C)c1CC(C)C
Second: CCCCn1c(=O)c2c(ncn2S(=O)(=O)c2c(C)cc(C)cc2C)n(CCCC)c1=O
The melting point of the first is lower: 53 to 55 °C for the first, 125 to 127 °C for the second.

First: CC(C)C[C@@H]1NC(=O)O[C@H]1CCS(=O)(=O)CCc1ccccc1
Second: O=C1NC(=O)C(=Cc2ccc(C(=O)CCc3ccccc3)cn2)S1
The melting point of the first is lower: 100 to 101 °C for the first, greater than 250 °C for the second.

First: COc1cccc(OC)c1-c1cc(C(=O)NC2(C(=O)O)C3CC4CC(C3)CC2C4)nn1-c1ccc(NC(=O)CCN2CCCCC2)cc1C (stereo not given)
Second: CCCc1c(OCCCOc2ccc(CC(=O)O)cc2F)ccc(C(C)=O)c1O
The melting point of the first is higher: 240 °C for the first, 121 to 123 °C for the second.

Compared with `c1cncc(CNC2=Nc3ccccc3Nc3ncccc32)c1`, `O=C(Nc1ccccc1)C(CS)Cc1ccccc1` (stereo not given) is lower in melting point: 192 to 194 °C for the first, 70 °C for the second.

Compared with `CC1(C)OC(=O)Nc2ccc(/C=C/C(N)=O)cc21`, `CC(=O)C(=Cc1ccc(O)c(C(=O)O)c1)C(C)=O` is lower in melting point: 196 to 198 °C for the first, 112 to 114 °C for the second.

Compared with `C#CC12CCCN(CC1)C2` (stereo not given), `CC(C)(C)OC(=O)C1CCN(C(=O)C2CN(c3ccc(C(=N)N)cc3)C(=O)O2)CC1` (stereo not given) is higher in melting point: 41 to 42 °C for the first, 160 °C for the second.

Compared with `CC(=NO)c1nc(-c2cccnc2)[nH]c1C`, `CC(=O)Oc1c(C=C(C#N)C#N)[nH]c2ccccc12` is lower in melting point: 215 to 216 °C for the first, 210 to 212 °C for the second.

First: CC(Oc1ccc(Oc2ccc(C(F)(F)F)cc2)cc1)C(=O)N1CCCO1 (stereo not given)
Second: C=C1N(CCCC)C(=O)OC12CCN(CCC=C(c1ccc(F)cc1)c1ccc(F)cc1)CC2
The melting point of the first is higher: 105 to 107 °C for the first, 92 to 93 °C for the second.

First: C=CS(=O)(=O)CS(=O)(=O)C=C
Second: COc1cc(OC)nc(C(CC2CC2)C(=O)NS(C)(=O)=O)n1 (stereo not given)
The melting point of the first is lower: 59 to 61 °C for the first, 92 to 94 °C for the second.

Compared with `Cc1cccc(-c2[nH]c(C(C)C)nc2-c2ccc(F)c(-c3ccc(S(C)=O)nc3)c2)n1` (stereo not given), `NS(=O)(=O)c1cccc(-c2noc(-c3cnn4c(C(F)(F)F)cc(-c5ccc(Cl)cc5)nc34)n2)c1` is higher in melting point: 100 to 102 °C for the first, 247 °C for the second.

First: C=CCC(CCC(CC=C)(C(=O)c1ccc(NCCO)cc1)N(C)C)(C(=O)c1ccc(NCCO)cc1)N(C)C (stereo not given)
Second: Cc1ccc(-c2c(NS(=O)(=O)c3ccc(C(C)(C)C)cc3)ncnc2OCCOc2ccc(NC(=O)C(C)(C)C)cn2)cc1
The melting point of the first is lower: 95 to 96 °C for the first, 140 to 141 °C for the second.

Compared with `CCCCCCCCCCC(O)CNC` (stereo not given), `CCCCCCCCCC(C)CNc1cccc(-c2ccnc3c(C(=O)c4cccs4)cnn23)c1` (stereo not given) is higher in melting point: 56 to 57 °C for the first, 108 to 110 °C for the second.

First: OCc1cnoc1-c1ccc(F)c(F)c1
Second: CC1=NC(=O)C(Cc2c[nH]c3ccccc23)N(O)C1=O (stereo not given)
The melting point of the first is lower: 72 to 73 °C for the first, 166 to 168 °C for the second.

First: COC(=O)C(OC)(OC)C(=O)Nc1ccc(Br)cc1C
Second: COC(=O)Cc1cc(OC)ccc1O
The melting point of the first is higher: 99 to 103 °C for the first, 69 to 70 °C for the second.

First: CC(CO)NC(=O)c1cnc(N2CCC(N3C(=O)OCc4ccccc43)CC2)c(Cl)c1 (stereo not given)
Second: COc1ccccc1OCC1SCCN1C(=O)CS (stereo not given)
The melting point of the first is higher: 125 to 128 °C for the first, 86 to 87 °C for the second.

First: CC(Br)C(=O)NS(=O)(=O)c1cccc2c1OC(C)(C)C2 (stereo not given)
Second: C=C1CC2C(=CCC3(C)C2CC(C)C3(OC(C)=O)C(C)=O)C2(C)CCC(=O)C=C12 (stereo not given)
The melting point of the first is higher: 224 to 226 °C for the first, 197 to 198 °C for the second.

Compared with `COCCc1nc2c(N)nc3ccc(OCc4ccccc4)cc3c2n1C`, `N#Cc1ccc(Oc2cccc(Oc3ccc(C#N)c(C#N)c3)c2)cc1C#N` is lower in melting point: 192 to 194 °C for the first, 183 to 186 °C for the second.

First: Cc1c(Cl)c(Cl)c(Cl)c(Cl)c1CCl
Second: CC(C)(C)c1cc(C#N)c(O)cn1
The melting point of the first is lower: 102 to 103 °C for the first, 185 to 195 °C for the second.
